Assays:
[1] = Storage stability of polymer films containing diazeniumdiolate (NO release after storage); format: physicochemical; conditions: 4 weeks
Experimental: To determine if polymer films containing such diazeniumdiolates would also remain stable, NO release measurements were conducted for films containing 29 wt. % PVC, 60 wt. % plasticizer (DOS), 4.4 wt. % compound 2d and 6.6 wt. % KTpClPB under two storage conditions: a) room temperature under nitrogen and b) ambient conditions. Initial NO release measurements were performed for freshly prepared films. Additional NO release measurements were conducted for both storage conditions after 1, 2 and 4 weeks. […] The loss of NO may be due in part to the slow decomposition of the diazeniumdiolate within the polymer matrix owing to permeation of water vapor into the polymer film. Although this loss represents a significant percentage of the total NO releasing capability of the film, such films still yield NO surface fluxes higher than that of stimulated endothelial cells (i.e., 4·10^−10 mol·cm^−2·min^−1). However, films stored under a dry nitrogen environment at room temperature maintained 99% of their NO release after a 4-week period.

adult sheep = test: Coated VECTRA vascular access grafts implanted as arteriovenous grafts in sheep, 21 days; format: in vivo
Source text: Synthetic vascular access grafts (VECTRA™), a proprietary blend of segmented polyetherurethane and siloxane (20 cm in length and 5 mm in diameter), were coated with compound 2d dispersed within a PVC/DOS matrix with appropriate additives. A sheep model was used for in vivo testing. Arteriovenous grafts connecting the common carotid artery to the ipsilateral external jugular vein were surgically implanted in subcutaneous tunnel in adult sheep. Over a 3-week period, duplex ultrasound and clinical examination were performed to assess graft patency. Grafts were removed at 21 days and underwent gross and histological evaluation. […] In addition, histological studies, using appropriate stains to highlight different regions, confirm the thrombus adherent at the luminal surface and red blood cell infiltration into upper layers of the control grafts (FIG. 11A).

[2] = NO release from polymer films/coatings containing NO donor in PBS buffer at 37° C. by chemiluminescence; format: physicochemical
Experimental: Thermal stability of diazeniumdiolates. […] Kinetics. […] Use in Hydrophobic Systems.
In the absence of the KTpClPB, NO release decreases dramatically after approximately 1 hour. […] The decrease in NO release observed is believed to result from an increase in the pH within the organic polymer film, which decreases the decomposition rate of lipophilic diazeniumdiolates. As water diffuses into the film initiating NO release, secondary amine sites result. The secondary amine sites have a higher pKa than water and therefore deprotonate water to form hydroxide ions. The basic microdomain environment that results within the polymer, in turn, slows further decomposition of the remaining diazeniumdiolates that would generate NO. This retardation may occur as a result of the organic ammonium hydroxide microphases within the polymer, which in turn serves to stabilize the remaining diazeniumdiolates.
FT-IR were collected on Perken Elmer Spectrum VX. […] Elemental analyses were performed. Reagents. […] NO was purchased from Matheson Gases. […] General NO Addition Procedure. […] The products were finally collected and dried under vacuum. Molar Extinction Coefficients. […] The maximum wavelength and absorbance were collected. […] Kinetics Studies. […] The NO released was measured using chemiluminescence. […] Preparation of Polymer Films Containing Diazeniumdiolates. […] The membranes were covered and allowed to cure overnight. […] Polymerization to Form Boc-protected Diamine Copolymer.
General Procedure for Deprotection to Form Diamine Copolymer (c). 35 mg of the copolymer (b) was dissolved in 2 mL of dichloromethane and then 200 μL of TFA (trifluoroacetic acid) was added dropwise. The solution was stirred at room temperature for about 3 hours. The reaction mixture was diluted with 20 mL of dichloromethane, and the organic phase was then washed with sodium bicarbonate, water, and brine, and was dried with sodium sulfate. The solvent was evaporated and the resulting copolymer was dried under vacuum overnight. ^1H-NMR was performed to confirm the structure and actual composition of the copolymer. General Procedure for NO Loading to Form Polymer-Based NO Donor (d). 20 mg of the deprotected copolymer (c) was dissolved in 3 mL of dry THF and placed in a high pressure reactor with a stirring bar, and flushed with argon for about 10 minutes. 100% excess of sodium methoxide (with respect to free amine sites) was added and the reactor was closed. The reactor was purged with argon again for several times (e.g. ten times) over a 1 hour period and was charged with NO at 80 psi. The reaction mixture was stirred for 72 hours at room temperature. After the reaction was complete, the copolymer was precipitated with dry hexane under argon. The remaining solvent was removed using a vacuum, and the diazeniumdiolated copolymers (d) were examined by UV-Vis spectrum as well as NOA. This resulting copolymer was stored in sealed vials charged with argon in a freezer. Preparation of Polymer Films Containing Polymer-Based No Donor. Polymer membranes containing the polymer-based NO donor was prepared by dissolving 60.8 mg poly(vinyl chloride) (PVC), 30.4 mg dioctyl sebacate (DOS), and 9.1 mg poly(lactide-co-glycolide) (50:50) (PLGA 50:50) in 1.5 mL of freshly distilled tetrahydrofuran. […] A trilayer film configuration is employed to fabricate films. […] Four hours later the polymer cocktail was cast on top of the PVC layer. After another 4 hours, the PVC solution was cast again as a finish layer. The membrane was covered and allowed to cure overnight. Polymer films containing no additives were prepared in a similar manner. […] NO Release Measurements by Chemiluminescence. All NO measurements were performed using a Sievers Nitric Oxide Analyzer (NOA), model 280. The instrument was calibrated before each experiment using an internal two-point calibration (zero gas and 45 PPM). The flow rate was set to 200 mL/min with a cell pressure of 5.4 torr and an oxygen pressure of 6.0 psig. […]

CCCCNCCCCCCN(CCCC)/[N+]([O-])=N/O [Compound 2d, (Z)-1-{N-Butyl-N-[6-(N-butylammoniohexyl)amino]}-diazen-1-ium-1,2-diolate]
theoretical total NO release achieved after storage ([1]; film 29 wt. % PVC, 60 wt. % DOS, 4.4 wt. % donor, 6.6 wt. % KTpClPB, ambient conditions): 62%
NO surface flux of films after ambient storage (vs stimulated endothelial cells) ([1]; films stored under ambient conditions): > 4·10^−10 mol·cm^−2·min^−1
NO release maintained after storage ([1]; same film, dry nitrogen environment at room temperature): 99%
graft patency (adult sheep; duplex ultrasound and clinical examination, n=2): patent at 21 days
mean luminal thrombus-free surface area (adult sheep; grafts coated with donor in PVC/DOS matrix, removed at 21 days, n=2): 95%
histological evaluation of grafts (adult sheep; grafts removed at 21 days): minimal thrombus formation and red blood cell infiltration
gross evaluation of thrombus formation on grafts (adult sheep; grafts removed at 21 days, vs control grafts): greatly reduced degree of thrombus formation
t1/2 ("apparent" t1/2 and t1/2) (buffer, pH 7.4): 4.95 ± 0.567 min
k (first order decomposition, PBS buffer, pH 7.4, 37° C., n > 3): 0.0025 ± 0.0002 s⁻¹
effect of doubling the NO donor amount ([2]; 4 wt. % vs 8 wt. % in 1:2 PVC/DOS film with KTpClPB): nearly doubles the surface flux and the NO release
effect of plasticizer on NO release ([2]; PVC/NPOE matrix compared with PVC/DOS matrix, with KTpClPB): higher initial NO release
effect of increasing polymer to plasticizer ratio on NO release ([2]; PVC:DOS increased from 1:2 to 2:1, films with KTpClPB): the NO release rate decreases and the release is prolonged
period of steady NO release ([2]; SR tubes coated with plasticized SR, 4.2 wt. % donor, 8.1 wt. % KTpClPB, PBS buffer at 37° C.): 40 h
total estimated NO released from the surface of the tube ([2]; SR tubes coated with plasticized SR, 4.2 wt. % donor, 8.1 wt. % KTpClPB, after 40 h in PBS buffer at 37° C.): 15%
time after which NO release decreases dramatically ([2]; plasticized PVC film, absence of KTpClPB): approximately 1 hour
effect of adding KTpClPB on NO release ([2]; plasticized PVC films, 1:1 mol ratio KTpClPB:donor, PBS pH 7.4, 37° C.): increases, prolongs, and helps to control the release of NO
total NO release profile from film without additive ([2]; ~5 wt. % in PVC film plasticized with DOS (1:2), PBS buffer, 37° C., no KTpClPB): never achieving theoretical total NO release

Source: patent publication US20110117164A1, “Use of Additive Sites to Control Nitric Oxide Release from Nitric Oxide Donors Contained within Polymers” (priority 2004, published 2011)
